Reference: patent US8829026B2, “Sulfamoyl benzoic acid heterobicyclic derivatives as TRPM8 antagonists” (RaQualia Pharma Inc., priority 2010, dated 2014)

Target: T1, human TRPM8 (Homo sapiens, UniProt Q7Z2W7)
T1 construct: expressed in transfected cells
Assay: Menthol-induced Ca2+ influx in HEK293 cells stably expressing human TRPM8
Type: cell-based
Settings: 30 microM menthol-induced Ca2+ influx, HEK293 cells stably expressing human TRPM8, 11-point dose-response
Procedure: Measurement of the Menthol-Induced Ca^2+ Influx in HEK293 Cells Stably Expressing Human TRPM8
A cell-based Ca^2+ influx assay using HEK293 cells stably expressing human TRPM8 was used to identify the activity of compounds.
HEK293 cells stably expressing human TRPM8 were grown in T175 flasks at 37° C. in a 5% CO2 humidified incubator to about 80% confluence. Media composition consisted of Dulbecco's Modified Eagle Medium (high glucose), 10% fetal calf serum (FCS), 100 units/ml Penicillin, 100 microg/ml Streptomycin and 600 microg/ml Geneticine. At 24 hours prior to assay, cells were seeded in poly-D-lysine coated 384-well plates (BD FALCON) at a density of 30,000 cells per well in culture medium and grown overnight in 5% CO2 at 37° C. On the assay day, growth media was removed and cells were loaded with 0.5 microM Fluo4-AM (Molecular Probes) and 0.005% Pluronic F-127 dissolved in assay buffer (Hank's balanced salt solution (HBSS), 19.4 mM HEPES pH7.4, 2.5 mM Probenecid) for 1 hour at room temperature. After washing with assay buffer, the cells were preincubated with various concentrations of the compounds for 5 min. The changes in intracellular calcium concentration by addition of 30 microM menthol were monitored by the cell imaging technology by Hamamatsu Photonics's Functional Drug Screening System (FDSS).
The IC50 values for compounds of the present invention were determined from 11-point dose-response studies. Curves were generated using the average of duplicate wells for each data point. Finally, the IC50 values are calculated with the best-fit dose curve determined by XLfit (ID Business Solutions Ltd.).

T1 sequence (Q7Z2W7 whole entry): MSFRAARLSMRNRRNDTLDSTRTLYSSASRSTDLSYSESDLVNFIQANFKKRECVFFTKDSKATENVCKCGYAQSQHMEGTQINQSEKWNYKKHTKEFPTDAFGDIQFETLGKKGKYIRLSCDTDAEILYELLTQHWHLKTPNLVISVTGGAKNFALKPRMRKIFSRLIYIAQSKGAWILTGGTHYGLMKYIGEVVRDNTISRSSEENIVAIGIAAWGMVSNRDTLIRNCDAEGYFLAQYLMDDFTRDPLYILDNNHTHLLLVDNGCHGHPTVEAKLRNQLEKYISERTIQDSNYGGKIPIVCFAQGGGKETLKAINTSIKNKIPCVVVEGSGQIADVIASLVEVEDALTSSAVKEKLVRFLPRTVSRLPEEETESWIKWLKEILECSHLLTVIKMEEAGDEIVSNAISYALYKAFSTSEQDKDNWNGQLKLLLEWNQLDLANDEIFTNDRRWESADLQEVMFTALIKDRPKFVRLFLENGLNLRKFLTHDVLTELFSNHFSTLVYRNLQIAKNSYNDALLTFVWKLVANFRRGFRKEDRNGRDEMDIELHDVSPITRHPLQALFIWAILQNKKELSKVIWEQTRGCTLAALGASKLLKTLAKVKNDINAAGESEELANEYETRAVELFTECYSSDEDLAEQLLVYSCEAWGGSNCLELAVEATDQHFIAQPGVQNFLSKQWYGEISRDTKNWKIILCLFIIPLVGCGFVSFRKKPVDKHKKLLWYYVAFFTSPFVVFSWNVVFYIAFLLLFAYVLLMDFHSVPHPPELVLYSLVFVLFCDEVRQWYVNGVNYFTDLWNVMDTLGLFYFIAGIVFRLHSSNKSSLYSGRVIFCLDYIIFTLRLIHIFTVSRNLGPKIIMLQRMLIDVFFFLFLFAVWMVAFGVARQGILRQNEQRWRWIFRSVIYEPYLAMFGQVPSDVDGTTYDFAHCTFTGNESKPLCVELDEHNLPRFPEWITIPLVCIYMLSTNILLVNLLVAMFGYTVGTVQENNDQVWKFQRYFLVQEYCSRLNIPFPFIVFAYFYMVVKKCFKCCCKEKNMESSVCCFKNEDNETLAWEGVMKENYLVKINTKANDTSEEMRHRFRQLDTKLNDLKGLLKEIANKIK

SMILES	IC50 [nM]
Cc1cc(C(=O)O)ccc1S(=O)(=O)N(Cc1ccc2c(cnn2C2CC2)c1)c1ncc(Cl)cc1Cl [Example 34, 4-(N-((1-Cyclopropyl-1H-indazol-5-yl)methyl)-N-(3,5-dichloropyridin-2-yl)sulfamoyl)-3-methylbenzoic acid]	< 1000
Cn1ccc2cc(CN(c3ncc(C(F)(F)F)cc3Cl)S(=O)(=O)c3ccc(C(=O)O)cc3Cl)cnc21 [Example 35, 3-Chloro-4-(N-(3-chloro-5-(trifluoromethyl)pyridin-2-yl)-N-((1-methyl-1H-pyrrolo[2,3-b]pyridin-5-yl)methyl)sulfamoyl)benzoic acid]	< 1000
Cn1ccc2cc(CN(c3ncc(Cl)cc3Cl)S(=O)(=O)c3ccc(C(=O)O)cc3Cl)cnc21 [Example 36, 3-Chloro-4-(N-(3,5-dichloropyridin-2-yl)-N-((1-methyl-1H-pyrrolo[2,3-b]pyridin-5-yl)methyl)sulfamoyl)benzoic acid]	1000 to 10000
Cn1ccc2cc(CN(c3ncc(C(F)(F)F)cc3Cl)S(=O)(=O)c3ccc(C(=O)O)cc3)cnc21 [Example 37, 4-(N-(3-Chloro-5-(trifluoromethyl)pyridin-2-yl)-N-((1-methyl-1H-pyrrolo[2,3-b]pyridin-5-yl)methyl)sulfamoyl)benzoic acid]	< 1000
O=C(O)c1ccc(S(=O)(=O)N(Cc2cnc3ccccc3c2)c2ncc(C(F)(F)F)cc2Cl)cc1 [Example 38, 4-(N-(3-Chloro-5-(trifluoromethyl)pyridin-2-yl)-N-(quinolin-3-ylmethyl)sulfamoyl)benzoic acid]	< 1000
O=C(O)c1ccc(S(=O)(=O)N(Cc2ccc3ncccc3c2)c2ncc(C(F)(F)F)cc2Cl)cc1 [Example 39, 4-(N-(3-Chloro-5-(trifluoromethyl)pyridin-2-yl)-N-(quinolin-6-ylmethyl)sulfamoyl)benzoic acid]	< 1000
